The record followed here is article PMC12843137, “Fine-Tuning Side Chain Substitutions: Impacts on the Lipophilicity–Solubility–Permeability Interplay in Macrocyclic Peptides” (Marine Drugs, 2025).

The nature of the data set: Caco-2 cell permeability study. To be noted: human; for recovery at 2 h, 5 μM: Caco-2, pH 7.4, Caco-2, 5 μM; for Papp A→B at 2 h, 5 µM / Papp B→A at 2 h, 5 µM: pH 7.4, Caco-2, 5 μM; for Papp A→B at 2 h, 5 µM: apical to basolateral; for Papp B→A at 2 h, 5 µM: basolateral to apical; for efflux ratio at 2 h, 5 µM: Caco-2, pH 7.4. It is filed as in vitro ADME. From the text:
One of the physicochemical quantities that mirrors the interaction of a compound with the cell membrane is permeability. Traditionally, measuring permeability with the PAMPA model provides estimates of passive permeability across a model membrane. […] Therefore, we measure the cell permeability of the six compounds using Caco-2 cells, so that the apical to basolateral (A to B) and basolateral to apical (B to A) permeabilities, and thereby the efflux ratio, can be determined. Three commercial drugs (Table 2) are used as standard compounds to establish and validate our in-house assay.
For Caco-2 cells (originally obtained from the American Type Culture Collection; ATCC, Manassas, VA, USA), 50 μL and […] of cell culture medium are added to each well of the Transwell insert and reservoir, respectively. And then the HTS transwell plates are incubated at 37 °C, 5% CO2 for 1 h before cell seeding. Caco-2 cells are diluted to 6.86 × 10^5 cells/mL with culture medium and 50 μL of cell suspension is dispensed into the filter well of the 96-well HTS Transwell plate. Cells are cultivated for 14–18 days in a cell culture incubator at 37 °C, 5% CO2, 95% relative humidity. Cell culture medium is replaced every other day, beginning no later than 24 h after initial plating. Stock solutions of the test compounds are prepared at a concentration of 10 mM in DMSO. […] Detailed assay procedures are provided in the SI. […]
dilution factor is changed according to the log D value and the LC-MS signal response. The samples are evaluated by LC-MS/MS analysis. All experiments are performed in duplicates.
5. Caco-2 Cell Permeability Assay
The Caco-2 plate is removed from the incubator and washed twice with pre-warmed HBSS (10 mM HEPES, pH 7.4), and then incubated at 37 °C for 30 minutes. The stock solutions of control compounds and test compounds are diluted in DMSO to get 1 mM solutions and then diluted with HBSS (10 mM HEPES, pH 7.4) get 5 μM working solutions. The final concentration of DMSO in the incubation system is 0.5%. To determine the rate of drug transport in the apical to basolateral direction. 125 μL of 5 μM working solution of control compounds and test compounds are added to the Transwell insert (apical compartment), and transfer 50 μL sample (D0 sample) immediately from the apical compartment to a new 96-well plate. Fill the wells in the receiver plate (basolateral compartment) with 235 μL of HBSS (10 mM HEPES, pH 7.4). To determine the rate of drug transport in the basolateral to apical direction. 285 μL of 5 μM working solution of control compounds and test compounds are to the receiver plate wells (basolateral compartment), and transfer 50 μL sample (D0 sample) immediately from the basolateral compartment to a new 96-well plate.
Fill the wells in the Transwell insert (apical compartment) with 75 μL of HBSS (10 mM HEPES, pH 7.4).
The assay is performed in duplicate. The plates are incubated at 37 °C for 2 h. At the end of the incubation, 50 μL samples from donor sides (apical compartment for Ap→Bl flux, and basolateral compartment for Bl→Ap) and receiver sides (basolateral compartment for Ap→Bl flux, and apical compartment for Bl→Ap) are transferred to wells of a new 96-well plate, followed by the addition of 4 volume of cold acetonitrile containing appropriate internal standards (IS). Samples are Vortexed for 5 minutes and then centrifuged at 3,220 g for 30 minutes. An aliquot of 100 µL of the supernatant is mixed with an appropriate volume of ultra-pure water before LC-MS/MS analysis (see SI Bioanalytical Method for Caco-2 Cell Permeability […]
Papp (A to B) is greater than the Papp (A to B) of minoxidil it is assigned as high permeability. If the Papp (A to B) is […]

Setting [1] is: read-out: Mean % Solution Recovery A to B.
Setting [2] is: read-out: Mean % Solution Recovery B to A.

Where two headings read alike, the source gives them in different places.

Broadly, the Papp A→B is the apparent permeability from the apical to the basolateral side of a cell layer. Read a low Papp A→B as poor permeation. What is called Papp B→A is how fast a substance crosses the layer from the basolateral side. Take `CCCCOc1ccc(-c2ccc(-c3ccc(Cn4cc(CCCCC[C@H]5OC(=O)CN(C)C(=O)/C=C/[C@@H](CN6CCN(C)CC6)NC(=O)CNC(=O)[C@@](C)(O)C(=O)[C@H]5C)nn4)cc3)cc2)cc1` [Compound 29]: the Papp A→B at 2 h, 5 µM is below 0.00798 ×10⁻⁶ cm/s and the Papp B→A at 2 h, 5 µM was below 0.00266 ×10⁻⁶ cm/s. Moreover, the recovery at 2 h, 5 μM under setting [1] was below 92.9%. Also, the recovery at 2 h, 5 μM under setting [2] was below 71.1%.
The efflux ratio is a quotient of directional permeabilities that is used to spot active efflux. On to `CC1C(=O)C(C)(O)C(=O)NCC(=O)NC(CN2CCN(C)CC2)C=CC(=O)N(C)CC(=O)OC1CCCCc1cn(CCCCCCCCNC(=N)N)nn1` (stereo not shown) [Compound 31], for which the efflux ratio at 2 h, 5 µM worked out at 2.57; the Papp A→B at 2 h, 5 µM was 0.0348 ×10⁻⁶ cm/s; the Papp B→A at 2 h, 5 µM came out at 0.0894 ×10⁻⁶ cm/s. Moreover, the recovery at 2 h, 5 μM under setting [1] came out at 109%. The recovery at 2 h, 5 μM under setting [2] came out at 70.4%.
On the same counts, the results for `CCCCCCCCCCCCCC1OC(=O)CN(C)C(=O)C=CC(CN2CCN(C)CC2)NC(=O)CNC(=O)C(C)(O)C(=O)C1C` (stereo not shown) [BE-NMP] are above 65.3, below 0.0144 ×10⁻⁶ cm/s, 0.942 ×10⁻⁶ cm/s, below 23.5% and 8.99%.
For `C[C@@H]1C(=O)[C@](C)(O)C(=O)NCC(=O)N[C@H](CN2CCN(C)CC2)/C=C/C(=O)N(C)CC(=O)O[C@H]1CCCCCc1cn(CCCCCCCNc2cccc3c2CN(C2CCC(=O)NC2=O)C3=O)nn1` (stereo partly shown) [Compound 40] the same measures were above 10.8, below 0.0116 ×10⁻⁶ cm/s, 0.13 ×10⁻⁶ cm/s, below 89.4% and 50.4%.
